For 3 compounds, half-life and ED50 results are on record in US6780854B2, “Orally active androgens” (Akzo Nobel NV, priority 1999, dated 2004).

The nature of series [1]: t1/2 after incubation with human hepatocytes (metabolic stability). In kind it is in vitro ADME. As to conditions: male, cryopreserved human hepatocytes in suspension; 10 nM compound; cryopreserved human hepatocyte suspension, 37° C.; incubations stopped after 0.5, 1 and 3 h; LC-MS/MS. On the procedure: Determination of t1′2 of Androgens of the Invention after Incubation with Human Hepatocytes
The half-life of a compound as a result of contact with human hepatocytes holds as a reliable indication of metabolic stability. As it is well known that the absorption of this class of steroids is high, this assay provides an in vitro model for oral activity in humans.
Hepatocytes collected from healthy young (25-45 year) male organ donors were cryo preserved in liquid nitrogen and kept there until use. They were thawed at 37° C. in a waterbath, placed immediately on ice, washed twice in one volume of cold (4° C.) incubation medium [William's medium E (without phenol red) with Glutamax I®, gentamicin 50 μg/ml, insulin 1 μM, hydrocortisone hemisuccinate 10 μM, fetal calf serum 0% (v/v)], counted and the viability checked by Trypan blue exclusion. Cells were incubated as suspensions in 12-wells (non-coated) plates at a nominal density of 0.5×10^6 cells/well in 1.5 ml medium at 37° C. with an air/O2/CO2 mixture (55/40/5). The plates were set on an orbital shaker at approximately 10 rpm.
The hepatocytes were incubated with 10 nM final concentration of the compound to be tested. The incubations were stopped after 0.5, 1 and 3 h by pipetting the whole incubation mixture into a glass tube and adding one volume of acetone on ice. The acetone was dried under a nitrogen flow at room temperature, the volume adjusted to 1.5 ml and the tubes were centrifuged at 4° C. at 10.000×g for 30 min. The de-proteinized supernatants were collected for LC-MS/MS analysis.

The subject of a further series is serum LH. As to the kind of experiment: LH suppression assay: determination of oral activity. Type of series: in vivo. As to conditions: Rattus norvegicus; mature male castrated rats; po daily for 4 days in arachis oil; serum LH 3 hours after last oral dose; read-out: ED50 (po) required to suppress serum LH for 50% (±10%). On the procedure: The LH Suppression Assay: Determination of Oral Activity
The in vivo potency (po) of several androgens of the invention was determined in a mature male castrated rat model, in comparison wih Segaloff compound. In this model serum LH is high (50× fold higher than with intact rats, due to the absence of the negative feedback of testicular testosterone). These rats are po treated for 4 days daily with a given compound of the invention in a suspension fluid of arachis oil. Before dosing and 3 hours after the last oral dose blood is collected via tail vene and in the serum LH is determined. Potency (po) of the androgens (ED50) are expressed as the amount (mg/kg) of androgen which suppresses serum LH for 50% (±10%).
The rat LH Time-Resolved Immuno Fluorometric Assay (TR-IFMA) has been developed in house using home made reagents, a monoclonal catching antibody directed against the β-subunit of human chorion gonadotrophin (hCG, which cross react with rat β-subunit) and a biotin labelled detecting antibody (rabbit polyclonal antibody directed against the alfa-subunit of recombinant rat LH). Recombinant rat LH was prepared according to the methods described by Hakola et al (1997). In this two-site-IFMA, only intact rat LH is determined by a final incubation with streptavidin-europium. The detection in the IFMA is based on fluorescence of the lanthanide europium during a relative long exitation period. The concentration range of rat LH standard is 0.001-10 ng/ml, for optimal accuracy measurements of serum LH serum samples were diluted 8-times with assay buffer [Hakola, K., Boogaart, P. V., Mulders, J., de Leeuw, R., Schoonen, W., Heyst, J. V., Swolfs, A., Casteren, J. V., Huhtaniemi, I., and Kloosterboer, H. J., Recombinant rat luteinizing hormone; production by Chinese hamster ovary cells, purification and functional characterization, Molecular & Cellular Endocrinology 128, 47 (1997)].

Molecules are shown by their SMILES.

What is called half-life is the time in which the quantity being followed falls by half. Usually ED50 stands for the dose that gives a 50% effect, or the effect in half of the subjects. `CC[C@@H]1CC2=CC(=O)CC[C@@H]2[C@H]2CC[C@@]3(C)C(=CC[C@@H]3O)[C@H]12` [Example 1a, (7α,17β)-7-Ethyl-17-hydroxyestra-4,14-dien-3-one] displayed a half-life at 10 nM in series [1] of 2.62 h. For the same compound, in the series with serum LH, the median effective dose (ED50) was determined as 0.2 mg/kg.

Take `C=C[C@@H]1CC2=CC(=O)CC[C@@H]2[C@H]2CC[C@@]3(C)C(=CC[C@@H]3O)[C@@H]21` [Example 2, (7α,17β)-7-Ethenyl-17-hydroxyestra-4,14-dien-3-one]: the half-life at 10 nM in series [1] is 0.667 h. In addition, the ED50 with serum LH worked out at 0.5 mg/kg.

In series [1], `C[C@@H]1CC2=CC(=O)CC[C@@H]2[C@H]2CC[C@@]3(C)C(=CC[C@@H]3O)[C@@H]21` [Segaloff compound, (7α,17β)-7-Methyl-17-hydroxyestra-4,14-dien-3-one, reference compound] showed a half-life at 10 nM of 1 h. The ED50 in the series with serum LH was found to be 5 mg/kg.
